Reference: patent US20100021940A1, “Method for Determining the Activity of a Protease in a Sample” (ASTRAZENECA AB, priority 2006, published 2010)
Values joined by “and” are separate entries in the source; they are usually repeats but may differ in a detail not shown here. Identical values can stand only once.

Tests used:
MMP8 = biological target: T1, MMP8 (Homo sapiens, UniProt P22894); assay: Activity of purified MMP on substrate (reporter release); type: biochemical; conditions: Table 1b; MMP8
T1 construct: purchased Calbiochem
T1 sequence (P22894 101-467): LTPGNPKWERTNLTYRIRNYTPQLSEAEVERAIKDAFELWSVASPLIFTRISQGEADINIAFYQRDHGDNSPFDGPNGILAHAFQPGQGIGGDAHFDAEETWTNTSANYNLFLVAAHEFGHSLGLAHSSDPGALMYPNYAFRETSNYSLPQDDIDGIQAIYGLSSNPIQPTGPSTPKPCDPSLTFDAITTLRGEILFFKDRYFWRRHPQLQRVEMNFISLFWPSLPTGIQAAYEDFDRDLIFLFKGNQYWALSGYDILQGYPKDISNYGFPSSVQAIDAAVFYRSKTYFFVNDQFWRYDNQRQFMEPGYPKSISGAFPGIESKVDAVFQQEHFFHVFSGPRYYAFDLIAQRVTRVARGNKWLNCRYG
Experimental: In order to confirm the specificity of the substrates for various MMPs, standard enzymatic assays were adapted to monitor the release of reporter. The reporter was either analysed by a LC-MS method as described in Example 3a, or by a LC-UV method as described in Example 4. Purified pro-MMP8 is purchased from Calbiochem. The enzyme (at 10 μg/ml) is activated by p-amino-phenyl-mercuric acetate (APMA) at 1 mM for 2.5 h, 35° C. The activated enzyme can be used to monitor activity of substrates as follows: MMP8 (200 ng/ml final concentration) is incubated for 90 minutes at 35° C.

MMP3 = MMP3 (Homo sapiens, UniProt P08254); assay: as above; type: biochemical; conditions: Table 1b; MMP3
Sequence of MMP3 (P08254 100-477): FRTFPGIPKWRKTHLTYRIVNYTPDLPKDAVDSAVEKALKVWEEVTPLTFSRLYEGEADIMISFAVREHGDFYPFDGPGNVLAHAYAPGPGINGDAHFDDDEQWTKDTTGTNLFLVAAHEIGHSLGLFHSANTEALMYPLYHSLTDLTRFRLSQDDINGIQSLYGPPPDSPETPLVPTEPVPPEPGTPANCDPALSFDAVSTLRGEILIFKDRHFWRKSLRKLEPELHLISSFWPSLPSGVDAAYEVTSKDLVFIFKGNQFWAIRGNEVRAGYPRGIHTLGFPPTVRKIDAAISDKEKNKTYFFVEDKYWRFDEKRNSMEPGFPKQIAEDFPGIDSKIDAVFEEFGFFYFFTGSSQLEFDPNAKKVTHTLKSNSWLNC
Text: (§1) In order to confirm the specificity of the substrates for various MMPs, standard enzymatic assays were adapted to monitor the release of reporter. The reporter was either analysed by a LC-MS method as described in Example 3a, or by a LC-UV method as described in Example 4. A protocol for testing against other matrix metalloproteinases, including MMP9, using expressed and purified pro MMP is described, for instance, by C.

MMP1 = biological target: T2, MMP1 (Homo sapiens, UniProt P03956); assay: as above; type: biochemical; conditions: Table 1b; MMP1
T2 sequence (P03956 100-469): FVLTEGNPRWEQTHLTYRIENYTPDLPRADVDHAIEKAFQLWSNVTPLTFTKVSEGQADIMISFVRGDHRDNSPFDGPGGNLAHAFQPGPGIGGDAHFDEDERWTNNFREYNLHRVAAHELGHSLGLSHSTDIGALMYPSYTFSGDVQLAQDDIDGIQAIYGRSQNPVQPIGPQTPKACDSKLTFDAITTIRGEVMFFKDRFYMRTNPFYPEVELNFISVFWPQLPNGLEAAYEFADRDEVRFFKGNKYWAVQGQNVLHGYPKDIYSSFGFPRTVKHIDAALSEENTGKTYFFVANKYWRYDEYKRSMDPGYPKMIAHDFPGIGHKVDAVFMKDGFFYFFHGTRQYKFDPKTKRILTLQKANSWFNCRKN
Text: as §1

MMP = MMP activity in synovial fluid (reporter release, HPLC); type: biochemical, human
Experimental: Synovial fluid (SF) was obtained from patients with rheumatoid arthritis (7 subjects) and systemic lupus erythematosus (SLE) (1 subject).
The amount of each sample was adjusted so that approximately 4 mg of total protein was used in the assay (Table 13).
The samples were made up to 180 μl with a buffer consisting of 50 mM Tricine pH 7.5, 200 mM NaCl, 10 mM CaCl2, 20 μM ZnCl2 and 0.05% Brij-35.
To the samples was added 20 μl of the substrate Methyl 1-acetyl-L-prolyl-L-leucylglycyl-α-R-(4-nitrophenylamino)-glycyl-L-leucylglycinate (Example 1.2) solution (10 mM in methanol). After 3 h incubation at 37° C., the reaction was stopped with 5 μl 200 mM EDTA. The samples were filtered through a precolumn (Waters OASIS HLB Icc, part no. 94225, pre-conditioned with 1 ml of ethanol followed by 1 ml water) which was eluted with 1 ml water and 1 ml of 90% ethanol. The samples were evaporated to dryness under a stream of nitrogen, redissolved in 200 μl 50% ethanol and vigorously mixed with vortex mixer and centrifuged (1000 g, 2 min). Of the supernatant, 10-160 μl aliquots were analysed for the reporter 4-nitroaniline with HPLC (detection as in example 3 or with UV at […]). A standard curve was obtained by from samples spiked with quantified amounts of the reporter (4NA) and treated in the same way as the analytical samples.

MMP9 = assay: Activity of purified MMP on substrate (reporter release); type: biochemical, human; conditions: Table 1b; MMP9
Text: In order to confirm the specificity of the substrates for various MMPs, standard enzymatic assays were adapted to monitor the release of reporter. The reporter was either analysed by a LC-MS method as described in Example 3a, or by a LC-UV method as described in Example 4. […] The enzyme can be used to monitor activity of substrates as follows: […]

MMPs = assay: Cleavage of separated diastereomers by MMPs to liberate the reporter; type: biochemical

| Activity of selected substrates with MMPs (MMP8) | Activity of selected substrates with MMPs (MMP3) | Activity of selected substrates with MMPs (MMP1) | SMILES | release of reporter 4-biphenylmethanol (MMP; pooled sample of synovial fluid from all subjects in Table 13, same procedure) [nmol/ml SF] | Activity of selected substrates with MMPs (MMP9) | Cleavage by MMPs to liberate the reporter (MMPs) | 4NA released (MMP activity in synovial fluid) (MMP; synovial fluid of individual subjects (rheumatoid arthritis, SLE), approx. 4 mg total protein, 3 h at 37° C.) |
| --- | --- | --- | --- | --- | --- | --- | --- |
| 26.9 units/s (molRXH/molEnz * s) | 5.5 units/s (molRXH/molEnz * s) | 35.4 units/s (molRXH/molEnz * s) | COC(=O)CNC(=O)[C@H](CC(C)C)NC(=O)[C@@H](NC(=O)CNC(=O)[C@H](CC(C)C)NC(=O)[C@@H]1CCCN1C(C)=O)OCc1ccc(-c2ccccc2)cc1 (single isomer, unassigned) [Example 1.3, Methyl 1-acetyl-L-prolyl-L-leucylglycyl-α-S-(biphenyl-4-ylmethoxy)-glycyl-L-leucylglycinate] | 33.2 | 63.6 units/s (molRXH/molEnz * s) | rapidly cleaved by MMPs |  |
|  |  |  | COC(=O)CNC(=O)[C@H](CC(C)C)NC(=O)[C@@H](NC(=O)CNC(=O)[C@H](CC(C)C)NC(=O)[C@@H]1CCCN1C(C)=O)Nc1ccc([N+](=O)[O-])cc1 [Example 1.2, Methyl 1-acetyl-L-prolyl-L-leucylglycyl-α-R-(4-nitrophenylamino)-glycyl-L-leucylglycinate] |  |  | rapidly cleaved by MMPs | 94.4 nmol/ml SF and 17.4 nmol/ml SF and 15.9 nmol/ml SF and 23.9 nmol/ml SF and 26.4 nmol/ml SF and 16.5 nmol/ml SF and 20.6 nmol/ml SF and 12.0 nmol/ml SF |
| 11.4 units/s (molRXH/molEnz * s) | 0.18 units/s (molRXH/molEnz * s) | 2.48 units/s (molRXH/molEnz * s) | CC(=O)N1CCC[C@H]1C(=O)N[C@@H](CC(C)C)C(=O)NCC(=O)N[C@@H](Nc1ccc([N+](=O)[O-])cc1)C(=O)N[C@@H](Cc1ccccc1)C(=O)Nc1ccccc1 [Example 1.5, 1-acetyl-L-prolyl-L-leucylglycyl-α-R-(4-nitrophenylamino)-glycyl-N-phenyl-L-phenylalaninamide] |  | 11.5 units/s (molRXH/molEnz * s) | rapidly cleaved by MMPs |  |

| SMILES | Activity of selected substrates with MMPs (MMP8) | Activity of selected substrates with MMPs (MMP3) | Activity of selected substrates with MMPs (MMP1) | release of reporter 4-biphenylmethanol (MMP; pooled sample of synovial fluid from all subjects in Table 13, same procedure) [nmol/ml SF] | Activity of selected substrates with MMPs (MMP9) | Cleavage by MMPs to liberate the reporter (MMPs) | 4NA released (MMP activity in synovial fluid) (MMP; synovial fluid of individual subjects (rheumatoid arthritis, SLE), approx. 4 mg total protein, 3 h at 37° C.) |
| --- | --- | --- | --- | --- | --- | --- | --- |
| COC(=O)CNC(=O)[C@H](CC(C)C)NC(=O)[C@@H](NC(=O)CNC(=O)[C@H](CC(C)C)NC(=O)[C@@H]1CCCN1C(C)=O)Nc1ccc(-c2nnc(-c3ccc(C)cc3)o2)cc1 [Example 1.4, Methyl 1-acetyl-L-prolyl-L-leucylglycyl-α-R-[4-(5-p-tolyl-[1,3,4]oxadiazol-2-yl)-phenylamino]-glycyl-L-leucylglycinate] | 0.05 units/s (molRXH/molEnz * s) | 0.00 units/s (molRXH/molEnz * s) | 0.00 units/s (molRXH/molEnz * s) |  | 0.58 units/s (molRXH/molEnz * s) | rapidly cleaved by MMPs |  |
